From ChEMBL document CHEMBL1201862, “PubChem BioAssay data set” (2004)
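Five compound concentrations were applied to cells in 96-well plates for 48 hours; endpoints were derived by simple linear interpolation of the resulting dose-response curve. Here, GI50 denotes the concentration required for 50% inhibition of growth.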 The source made the active and inactive calls. Rule as the data show it: active = GI50 up to about 1.1 µM and inactive = higher.

Columns and labels:
Assay in all cases: NCI anticancer screen, dose series, 48 h
Hs-578T = tested on: Hs-578T
TK-10 = tested on: TK-10
SK-MEL-28 = tested on: SK-MEL-28
PC-3 = tested on: PC-3
MCF7 = tested on: MCF7
MOLT-4 = tested on: MOLT-4
OVCAR-4 = tested on: OVCAR-4
SK-MEL-5 = tested on: SK-MEL-5
UACC-257 = tested on: UACC-257
MDA-N = tested on: MDA-N
Malme-3M = tested on: Malme-3M
SF-295 = tested on: SF-295
NCI/ADR-RES = tested on: NCI/ADR-RES
786-0 = tested on: 786-0
NCI-H23 = tested on: NCI-H23
T47D = tested on: T47D
DLD-1 = tested on: DLD-1
DMS-114 = tested on: DMS-114
DMS-273 = tested on: DMS-273
SNB-78 = tested on: SNB-78

Row | Structure (SMILES) | GI50 (Hs-578T) | GI50 (TK-10) | GI50 (SK-MEL-28) | GI50 (PC-3) | GI50 (MCF7) | GI50 (MOLT-4) | GI50 (OVCAR-4) | GI50 (SK-MEL-5) | GI50 (UACC-257) | GI50 (MDA-N) | GI50 (Malme-3M) | GI50 (SF-295) | GI50 (NCI/ADR-RES) | GI50 (786-0) | GI50 (NCI-H23) | GI50 (T47D) | GI50 (DLD-1) | GI50 (DMS-114) | GI50 (DMS-273) | GI50 (SNB-78)
1 | Oc1ccccc1/C=N/Nc1nc(N/N=C/c2ccccc2O)nc(N/N=C/c2ccccc2O)n1 | 46.5 µM (inactive) | > 100 µM (inactive) | > 100 µM (inactive) | 78.2 µM (inactive) | 8.63 µM (inactive) | 10.5 µM (inactive) | > 100 µM (inactive) | > 100 µM (inactive) | > 100 µM (inactive) | > 100 µM (inactive) | > 100 µM (inactive) | 86.1 µM (inactive) | 24.5 µM (inactive) | 40.2 µM (inactive) | > 100 µM (inactive) | 47.9 µM (inactive) | – | – | – | –
2 | CCCCCCCCCCCCCCCCCC(=O)NCCCNCCCNC(=O)CCCCCCCCCCCCCCCCC | – | > 100 µM (inactive) | > 100 µM (inactive) | – | – | > 100 µM (inactive) | > 100 µM (inactive) | > 100 µM (inactive) | > 100 µM (inactive) | – | > 100 µM (inactive) | > 100 µM (inactive) | – | > 100 µM (inactive) | > 100 µM (inactive) | – | > 100 µM (inactive) | > 100 µM (inactive) | > 100 µM (inactive) | –
3 | CC(=O)Nc1cc(C(=O)Nc2cc(C(=O)Nc3cc(C(=O)Nc4cc(C(=O)Nc5cc(C(=O)NCCC(=O)NCCCN(C)C)n(C)c5)n(C)c4)n(C)c3)n(C)c2)n(C)c1 | 34.2 µM (inactive) | > 100 µM (inactive) | 67.6 µM (inactive) | > 100 µM (inactive) | 28.2 µM (inactive) | 38.9 µM (inactive) | > 100 µM (inactive) | > 100 µM (inactive) | 76.2 µM (inactive) | 34.9 µM (inactive) | 27.5 µM (inactive) | > 100 µM (inactive) | > 100 µM (inactive) | 63.7 µM (inactive) | > 100 µM (inactive) | 31.5 µM (inactive) | – | – | – | –
4 | CCN(CC)CCOc1ccc(N2Cc3cc(OC)c(OC)cc3C2=O)cc1 | > 100 µM (inactive) | > 100 µM (inactive) | > 100 µM (inactive) | > 100 µM (inactive) | > 100 µM (inactive) | > 100 µM (inactive) | > 100 µM (inactive) | > 100 µM (inactive) | > 100 µM (inactive) | > 100 µM (inactive) | > 100 µM (inactive) | > 100 µM (inactive) | > 100 µM (inactive) | > 100 µM (inactive) | > 100 µM (inactive) | > 100 µM (inactive) | – | – | – | –
5 | CC(C)(C)c1cc(CCC(=O)Nc2ccc(Cl)cc2)nc(S)n1 | – | > 100 µM (inactive) | > 100 µM (inactive) | – | – | > 100 µM (inactive) | > 100 µM (inactive) | > 100 µM (inactive) | > 100 µM (inactive) | – | > 100 µM (inactive) | > 100 µM (inactive) | – | > 100 µM (inactive) | > 100 µM (inactive) | – | > 100 µM (inactive) | > 100 µM (inactive) | > 100 µM (inactive) | –
6 | COc1ccc(C(SCC(N)C(=O)O)(c2ccc(OC)cc2)c2ccc(OC)cc2)cc1 (configuration not stated) | 12.2 µM (inactive) | 14.9 µM (inactive) | 11.8 µM (inactive) | 11.1 µM (inactive) | 8.63 µM (inactive) | 12.6 µM (inactive) | 13.8 µM (inactive) | > 10 µM (inactive) | 11.9 µM (inactive) | 3.5 µM (inactive) | 10.8 µM (inactive) | 11.8 µM (inactive) | 10.6 µM (inactive) | 13.4 µM (inactive) | 12.4 µM (inactive) | 12.2 µM (inactive) | – | – | – | –
7 | CC(=O)Oc1ccn2nc(C)c(Br)c2c1Br | 29.6 µM (inactive) | 45 µM (inactive) | 21.4 µM (inactive) | 18.4 µM (inactive) | 17.8 µM (inactive) | 15.3 µM (inactive) | 16.8 µM (inactive) | 17.5 µM (inactive) | 16.7 µM (inactive) | 17.6 µM (inactive) | 22.4 µM (inactive) | 30.5 µM (inactive) | 47.6 µM (inactive) | 36.5 µM (inactive) | 18.3 µM (inactive) | 29.3 µM (inactive) | – | – | – | –
8 | NC(Cc1ccccc1)C(=O)OCN1C(=O)C2C3C=CC(C2C1=O)C1C2C(=O)N(COC(=O)C(N)Cc4ccccc4)C(=O)C2C31 (configuration not stated) | – | 39.2 µM (inactive) | 18.6 µM (inactive) | – | – | – | 23.3 µM (inactive) | 18.2 µM (inactive) | 23.2 µM (inactive) | – | – | 41.7 µM (inactive) | – | 20.7 µM (inactive) | 19.9 µM (inactive) | – | 26.6 µM (inactive) | 16.1 µM (inactive) | – | –
9 | N#CC(C#N)=C1C(=O)NC(N)=C1C#N | > 100 µM (inactive) | > 100 µM (inactive) | > 100 µM (inactive) | > 100 µM (inactive) | > 100 µM (inactive) | > 100 µM (inactive) | > 100 µM (inactive) | > 100 µM (inactive) | > 100 µM (inactive) | > 100 µM (inactive) | > 100 µM (inactive) | > 100 µM (inactive) | > 100 µM (inactive) | > 100 µM (inactive) | > 100 µM (inactive) | > 100 µM (inactive) | – | – | – | –
10 | CCOC(=O)NC(=O)c1cn(CC(=O)NCC(=O)NCC(=O)N2CCN(CCn3c(C)nc(C(N)=O)c3N)CC2)c(=O)[nH]c1=O | – | > 100 µM (inactive) | > 100 µM (inactive) | – | – | > 100 µM (inactive) | – | > 100 µM (inactive) | > 100 µM (inactive) | – | > 100 µM (inactive) | > 100 µM (inactive) | – | > 100 µM (inactive) | > 100 µM (inactive) | – | > 100 µM (inactive) | > 100 µM (inactive) | – | > 100 µM (inactive)
11 | Brc1ccc(/N=c2/nc3ccccn3n3nc(-c4ccccc4)cc23)cc1 | – | 29.8 µM (inactive) | 36 µM (inactive) | – | – | > 100 µM (inactive) | 5.89 µM (inactive) | > 100 µM (inactive) | 48.4 µM (inactive) | – | 4.34 µM (inactive) | 34.8 µM (inactive) | – | 19.9 µM (inactive) | 55.3 µM (inactive) | – | 14.7 µM (inactive) | 99.8 µM (inactive) | – | –
12 | Cc1ccc(/N=N/c2ccc(O)c(CN(C)C)c2)cc1 | 18.5 µM (inactive) | 21.7 µM (inactive) | 20 µM (inactive) | 19.4 µM (inactive) | 24.2 µM (inactive) | 19.2 µM (inactive) | 22.6 µM (inactive) | 14.5 µM (inactive) | 17.8 µM (inactive) | 16.2 µM (inactive) | 16.7 µM (inactive) | 18.1 µM (inactive) | 22.6 µM (inactive) | 22.3 µM (inactive) | 36.1 µM (inactive) | 13.7 µM (inactive) | – | – | – | –
13 | CCO/N=C\c1ccc2oc(-c3ccccc3)cc(=O)c2c1 | 0.402 µM (active) | 2.26 µM (inactive) | 28.8 µM (inactive) | 0.19 µM (active) | 0.31 µM (active) | 0.121 µM (active) | 5.51 µM (inactive) | 0.146 µM (active) | 18.3 µM (inactive) | 0.0143 µM (active) | 0.184 µM (active) | 0.191 µM (active) | 0.0501 µM (active) | 0.501 µM (active) | 0.476 µM (active) | 27.5 µM (inactive) | – | – | – | –
14 | CCOC(=O)C1(C/C=C/CCl)CCCC1=O (configuration not stated) | 44 µM (inactive) | 21.1 µM (inactive) | 23 µM (inactive) | 30.5 µM (inactive) | 16.4 µM (inactive) | 35.1 µM (inactive) | 29.6 µM (inactive) | 15.6 µM (inactive) | 35.2 µM (inactive) | 17.9 µM (inactive) | 22.5 µM (inactive) | 37.2 µM (inactive) | 19.5 µM (inactive) | 22.8 µM (inactive) | 18.8 µM (inactive) | 23.1 µM (inactive) | – | – | – | –
15 | Nc1ccc2c(c1)Oc1c(F)c(F)cc3c(=O)c(C(=O)O)cn-2c13 | – | 38.1 µM (inactive) | 40.3 µM (inactive) | – | – | 24 µM (inactive) | 40.1 µM (inactive) | 17.1 µM (inactive) | – | – | 45.9 µM (inactive) | – | – | 28.1 µM (inactive) | 64.1 µM (inactive) | – | 43.9 µM (inactive) | > 100 µM (inactive) | – | –
16 | Cc1c(Cl)ccc2c1NC(=O)C2(O)C1Cc2ccccc2C1=O (configuration not stated) | – | > 100 µM (inactive) | > 100 µM (inactive) | – | – | 25.2 µM (inactive) | 86.5 µM (inactive) | > 100 µM (inactive) | > 100 µM (inactive) | – | > 100 µM (inactive) | > 100 µM (inactive) | – | 41.3 µM (inactive) | > 100 µM (inactive) | – | > 100 µM (inactive) | 53.6 µM (inactive) | – | > 100 µM (inactive)
17 | COC(=O)C(=O)C(CC(=O)Nc1ccc(C)cc1)C(=O)OC (configuration not stated) | – | > 100 µM (inactive) | > 100 µM (inactive) | – | – | > 100 µM (inactive) | > 100 µM (inactive) | > 100 µM (inactive) | > 100 µM (inactive) | – | > 100 µM (inactive) | > 100 µM (inactive) | – | > 100 µM (inactive) | > 100 µM (inactive) | – | > 100 µM (inactive) | > 100 µM (inactive) | – | > 100 µM (inactive)
18 | CN(C)CCCn1nc(N)c2nc3cc(Cl)ccc3nc21 | 41.4 µM (inactive) | 54.7 µM (inactive) | 18.1 µM (inactive) | 41.4 µM (inactive) | 33.3 µM (inactive) | > 50.4 µM (inactive) | > 100 µM (inactive) | 20 µM (inactive) | 24.5 µM (inactive) | 52.7 µM (inactive) | 41.1 µM (inactive) | > 77.1 µM (inactive) | 71.8 µM (inactive) | 50.7 µM (inactive) | 81.8 µM (inactive) | 92.3 µM (inactive) | – | – | – | –
19 | COc1ccc2c(c1)/C(=C\c1c(Cl)n(-c3ccccc3)c3ccccc13)C(=O)N2 | 0.479 µM (active) | 15.5 µM (inactive) | 9.31 µM (inactive) | 7.23 µM (inactive) | 3.45 µM (inactive) | 2.23 µM (inactive) | 9.2 µM (inactive) | 4.34 µM (inactive) | 8.97 µM (inactive) | 1.74 µM (inactive) | 2.83 µM (inactive) | 3.91 µM (inactive) | 2.49 µM (inactive) | 8.45 µM (inactive) | 6.01 µM (inactive) | 5.94 µM (inactive) | – | – | – | –
